Data reported in patent US20240383875A1, “Benzimidazole Pyridine Derivatives” (Hoffmann-La Roche Inc., priority 2022, published 2024).

Legend:
Assay type in all cases: biochemical
SIK2 = SIK2 (Homo sapiens, UniProt Q9H0K1); assay: Enzymatic activity assay SIK2, RapidFire mass spectrometry (phosphorylation of CHK-peptide); conditions: RapidFire MS, inhibition of SIK2; read-out: SIK2 RF IC50
Protocol: (§1) Assay description SIK1-3, RapidFire:
In the presence of SIK2 (resp. SIK1 or SIK3) and ATP the CHK-peptide ([…] with C-terminal arginine amide modification) were phosphorylated at one of the four feasible serine's. […] 5 μl SIK2 (0.5 nM) or 7 μl SIK3 (1.5 nM) in assay-buffer (12.5 mM HEPES (pH 7.0), 10 mM magnesium acetate, 0.005% BSA). 10 μM CHK-peptide solution and 5 μl 100 μM ATP for SIK1 & SIK2 resp. 3 μl for SIK3 in assay-buffer were added and incubated ambient for 45 min. 40 μl 0.125% formic acid in water were added to quench the reaction. RapidFire (RF) Mass Spectrometry was utilized for data generation as described below. The multiple charged species (3-5 charges) for the phosphorylated and non-phosphorylated form measured by MRM (Multiple Reaction Monitoring; API5000 or 6500+) or EIC (Extracted Ion Current; QToF) were summed up and the ratio calculated (sum phosphorylated species/sum all species) for data evaluation. Normalization was performed by Genedata software based on the non-inhibition control DMSO and the commercially available SIK inhibitor @ 1 μM YKL-05-099 (CAS number 1936529-65-5).
(§2) Samples were aspirated by vacuum for max. 600 ms and loaded to C4-cartridge (Agilent; #G9203A) for 3000 ms@1.5 ml/min with 0.1% formic acid in water. Afterwards samples were transferred to the APT5000 (APT6500+) or QToF mass spectrometer for 4000 ms@1.25 ml/min with 90% acetonitrile; 10% water; 0.007% TFA; 0.093 formic acid. The cartridge was reconditioned for additional 500 ms with 0.1% formic acid in water
(§3) All MS analyses using the following MS-setup in MRM mode: Electrospray positive; Ion Spray Voltage: 4000V; Temperature: 550° C.; Collision Gas: 5; Curtain Gas: 15; Gas1: 40; Gas 2: 42; EP: 10
(§4) MS-Setup Agilent QToF 6545
(§5) All MS analyses using the following MS-setup in Mode MS: Dual AJS Electrospray positive; VCap: 3000V; Drying & Sheath gas: 340° C.@81/min; Nebulizer: 60 psig; Nozzle Voltage: 2000V; Fragmentor: 130V; Skimmer: 35V; Oct1 RF Vpp: 700V; Ref masses on@5spectra/s

SIK1 = SIK1 (Homo sapiens, UniProt P57059); assay: Enzymatic activity assay SIK1, RapidFire mass spectrometry (phosphorylation of CHK-peptide); conditions: RapidFire MS, inhibition of SIK1; read-out: SIK1 RF IC50
Protocol: as §1
(§6) In the presence of SIK2 (resp. SIK1 or SIK3) and ATP the CHK-peptide ([…] with C-terminal arginine amide modification) were phosphorylated at one of the four feasible serine's. Only one phosphorylation is observed under the assay conditions. 60 nl of each compound dilution series (12 point; dilution factor 3, generally 30 μM to 170 pM) in DMSO were transferred by acoustic dispensing to the assay plate and 30 min pre-incubated (ambient temperature) after the addition of 5 μl SIK1 (5 nM) resp. 5 μl SIK2 (0.5 nM) or 7 μl SIK3 (1.5 nM) in assay-buffer (12.5 mM HEPES (pH 7.0), 10 mM magnesium acetate, 0.005% BSA). 10 μM CHK-peptide solution and 5 μl 100 μM ATP for SIK1 & SIK2 resp. 3 μl for SIK3 in assay-buffer were added and incubated ambient for 45 min. 40 μl 0.125% formic acid in water were added to quench the reaction. RapidFire (RF) Mass Spectrometry was utilized for data generation as described below. The multiple charged species (3-5 charges) for the phosphorylated and non-phosphorylated form measured by MRM (Multiple Reaction Monitoring; API5000 or 6500+) or EIC (Extracted Ion Current; QToF) were summed up and the ratio calculated (sum phosphorylated species/sum all species) for data evaluation. Normalization was performed by Genedata software based on the non-inhibition control DMSO and the commercially available SIK inhibitor @ 1 μM YKL-05-099 (CAS number 1936529-65-5). The results of the assay are expressed in half-maximal inhibitory concentrations (IC50s) and are summarized below in Table 1.
as §2, §3, §4, §5

SIK3 = SIK3 (Homo sapiens, UniProt Q9Y2K2); assay: Enzymatic activity assay SIK3, RapidFire mass spectrometry (phosphorylation of CHK-peptide); conditions: RapidFire MS, inhibition of SIK3; read-out: SIK3 RF IC50
Protocol: as §1, §6, §2, §3, §4, §5

Chain of SIK2 (Q9H0K1 whole entry): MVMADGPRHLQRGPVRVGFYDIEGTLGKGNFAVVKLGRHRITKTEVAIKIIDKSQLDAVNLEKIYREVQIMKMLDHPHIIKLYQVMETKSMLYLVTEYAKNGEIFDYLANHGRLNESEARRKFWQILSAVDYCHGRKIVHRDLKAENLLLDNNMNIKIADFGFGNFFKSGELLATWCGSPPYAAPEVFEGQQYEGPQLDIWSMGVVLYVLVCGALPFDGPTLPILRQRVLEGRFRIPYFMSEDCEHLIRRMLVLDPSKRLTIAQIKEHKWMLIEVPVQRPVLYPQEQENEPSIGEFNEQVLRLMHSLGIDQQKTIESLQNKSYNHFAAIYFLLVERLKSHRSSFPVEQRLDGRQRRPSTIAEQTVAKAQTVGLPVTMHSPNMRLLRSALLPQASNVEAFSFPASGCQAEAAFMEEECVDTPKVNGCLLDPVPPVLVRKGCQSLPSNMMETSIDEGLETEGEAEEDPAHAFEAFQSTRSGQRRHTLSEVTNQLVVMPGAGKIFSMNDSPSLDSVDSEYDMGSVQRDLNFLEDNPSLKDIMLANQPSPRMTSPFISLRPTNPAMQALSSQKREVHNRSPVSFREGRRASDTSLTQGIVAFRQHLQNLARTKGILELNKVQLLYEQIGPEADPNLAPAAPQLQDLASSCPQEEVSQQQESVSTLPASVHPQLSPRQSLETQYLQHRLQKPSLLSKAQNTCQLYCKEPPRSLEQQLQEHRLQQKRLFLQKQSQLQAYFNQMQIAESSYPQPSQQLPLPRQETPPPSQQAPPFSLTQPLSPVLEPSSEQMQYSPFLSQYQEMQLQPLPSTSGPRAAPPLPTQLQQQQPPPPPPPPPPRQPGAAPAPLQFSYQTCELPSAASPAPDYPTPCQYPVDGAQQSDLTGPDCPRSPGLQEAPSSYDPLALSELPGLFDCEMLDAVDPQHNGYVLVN
Chain of SIK3 (Q9Y2K2 whole entry): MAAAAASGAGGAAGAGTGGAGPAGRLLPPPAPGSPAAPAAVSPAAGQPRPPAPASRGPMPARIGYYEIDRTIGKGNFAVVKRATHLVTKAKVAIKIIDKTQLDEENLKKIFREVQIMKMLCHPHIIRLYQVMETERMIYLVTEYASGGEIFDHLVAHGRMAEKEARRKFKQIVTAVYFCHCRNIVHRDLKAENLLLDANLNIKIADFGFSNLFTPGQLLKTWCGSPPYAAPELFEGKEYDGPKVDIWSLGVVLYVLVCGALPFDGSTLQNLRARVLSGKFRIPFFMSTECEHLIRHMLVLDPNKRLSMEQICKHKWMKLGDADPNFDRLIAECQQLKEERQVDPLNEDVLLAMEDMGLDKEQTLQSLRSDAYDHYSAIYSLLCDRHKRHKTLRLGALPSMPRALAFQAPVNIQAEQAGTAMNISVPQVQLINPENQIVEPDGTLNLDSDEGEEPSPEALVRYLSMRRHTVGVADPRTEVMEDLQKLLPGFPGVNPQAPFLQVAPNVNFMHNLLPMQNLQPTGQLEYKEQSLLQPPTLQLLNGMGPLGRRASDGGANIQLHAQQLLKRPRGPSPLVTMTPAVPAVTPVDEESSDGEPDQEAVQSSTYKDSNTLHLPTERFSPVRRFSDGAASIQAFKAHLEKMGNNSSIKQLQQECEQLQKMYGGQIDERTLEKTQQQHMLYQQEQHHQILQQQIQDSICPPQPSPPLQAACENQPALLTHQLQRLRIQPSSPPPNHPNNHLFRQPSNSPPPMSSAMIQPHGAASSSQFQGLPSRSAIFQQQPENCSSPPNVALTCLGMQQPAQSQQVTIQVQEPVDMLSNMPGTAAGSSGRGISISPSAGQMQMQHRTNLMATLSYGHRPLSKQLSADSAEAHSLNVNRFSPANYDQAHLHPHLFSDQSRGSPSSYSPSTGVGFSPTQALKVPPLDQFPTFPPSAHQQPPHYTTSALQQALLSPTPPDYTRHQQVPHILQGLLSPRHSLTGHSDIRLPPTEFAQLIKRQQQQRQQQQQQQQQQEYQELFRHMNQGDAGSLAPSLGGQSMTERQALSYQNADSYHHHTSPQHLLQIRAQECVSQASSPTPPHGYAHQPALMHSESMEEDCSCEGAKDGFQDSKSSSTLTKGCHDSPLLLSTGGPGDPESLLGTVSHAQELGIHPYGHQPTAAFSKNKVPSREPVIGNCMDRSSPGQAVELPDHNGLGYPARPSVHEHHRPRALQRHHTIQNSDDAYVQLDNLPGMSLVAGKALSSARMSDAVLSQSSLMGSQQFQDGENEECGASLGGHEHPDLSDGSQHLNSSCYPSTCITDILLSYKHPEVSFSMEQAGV
Chain of SIK1 (P57059 whole entry): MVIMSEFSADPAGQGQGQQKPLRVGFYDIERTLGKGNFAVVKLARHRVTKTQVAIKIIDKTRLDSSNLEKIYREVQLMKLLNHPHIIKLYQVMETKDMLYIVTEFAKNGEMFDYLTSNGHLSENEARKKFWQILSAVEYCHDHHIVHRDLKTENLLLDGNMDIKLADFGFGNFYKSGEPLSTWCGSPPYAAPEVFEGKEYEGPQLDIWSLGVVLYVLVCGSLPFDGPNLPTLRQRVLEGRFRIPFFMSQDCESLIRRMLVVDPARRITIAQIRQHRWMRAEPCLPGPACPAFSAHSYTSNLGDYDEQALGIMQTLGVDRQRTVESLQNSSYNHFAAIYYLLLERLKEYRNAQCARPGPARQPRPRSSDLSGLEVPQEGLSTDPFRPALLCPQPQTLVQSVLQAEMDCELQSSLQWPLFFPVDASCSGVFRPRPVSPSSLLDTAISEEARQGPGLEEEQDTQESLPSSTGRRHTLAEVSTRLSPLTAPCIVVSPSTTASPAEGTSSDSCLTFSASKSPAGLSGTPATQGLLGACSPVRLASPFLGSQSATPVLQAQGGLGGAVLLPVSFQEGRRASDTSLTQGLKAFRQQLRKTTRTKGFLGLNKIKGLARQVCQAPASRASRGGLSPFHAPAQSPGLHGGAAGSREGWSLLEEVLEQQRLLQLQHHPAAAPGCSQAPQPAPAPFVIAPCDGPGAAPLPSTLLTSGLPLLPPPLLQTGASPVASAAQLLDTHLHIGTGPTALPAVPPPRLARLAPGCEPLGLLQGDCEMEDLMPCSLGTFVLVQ

SMILES | IC50 (SIK2) [µM] | IC50 (SIK1) [µM] | IC50 (SIK3) [µM]
CCc1cc(-c2nc(-n3cnc4cc(Nc5ccc(C)nn5)ccc43)ccc2C(C)O)c(C)cn1 (stereo not drawn) [Example 283, 1-[2-(2-ethyl-5-methyl-4-pyridyl)-6-[5-[(6-methylpyridazin-3-yl)amino]benzimidazol-1-yl]-3-pyridyl]ethanol] | 0.0215 | 1.05 | 0.0079
Cc1nn(CC(F)(F)F)cc1-c1nc(-n2cnc3cc(NC(=O)CN4CCCCC4)ccc32)ccc1C(C)O (stereo not drawn) [Example 358, N-[1-[5-(1-hydroxyethyl)-6-[3-methyl-1-(2,2,2-trifluoroethyl)pyrazol-4-yl]-2-pyridyl]benzimidazol-5-yl]-2-(1-piperidyl)acetamide] | 0.0025 | 0.051 | 0.0084
Cc1ccc(Nc2ccc3c(c2)ncn3-c2ccc(C(C)O)c(-c3ccncc3C)n2)nn1 (stereo not drawn) [Example 162, 1-[6-[5-[(6-Methylpyridazin-3-yl)amino]benzimidazol-1-yl]-2-(3-methyl-4-pyridyl)-3-pyridyl]ethanol] | 0.198 | 8.57 | 0.0469
Cc1ccc(Nc2cc3ncn(-c4ccc(C(C)O)c(-c5cc(OC(F)F)ncc5C)n4)c3cc2F)nn1 (stereo not drawn) [Example 346, 1-[2-[2-(difluoromethoxy)-5-methyl-4-pyridyl]-6-[6-fluoro-5-[(6-methylpyridazin-3-yl)amino]benzimidazol-1-yl]-3-pyridyl]ethanol] | 0.001 | 0.133 | 0.0014
Cc1ccc(Nc2ccc3c(c2)ncn3-c2ccc(C(C)O)c(-c3cc(C#N)nn3C)n2)nn1 (stereo not drawn) [Example 255, 5-[3-(1-hydroxyethyl)-6-[5-[(6-methylpyridazin-3-yl)amino]benzimidazol-1-yl]-2-pyridyl]-1-methyl-pyrazole-3-carbonitrile] | 0.194 | 12.8 | 0.0304
Cc1ccc(Nc2ccc3c(c2)ncn3-c2ccc(C(C)O)c(-c3cc(C(F)(F)F)n[nH]c3=O)n2)nn1 (stereo not drawn) [Example 223, 5-[3-(1-Hydroxyethyl)-6-[5-[(6-methylpyridazin-3-yl)amino]benzimidazol-1-yl]-2-pyridyl]-3-(trifluoromethyl)-1H-pyridazin-6-one; formic acid] | 1.57 | > 30 | 0.335
Cc1nnc(Nc2cc3c(cc2F)ncn3-c2ccc(C(C)O)c(-n3nc(C#N)cc3C)n2)o1 (stereo not drawn) [Example 376, 1-[6-[5-fluoro-6-[(5-methyl-1,3,4-oxadiazol-2-yl)amino]benzimidazol-1-yl]-3-(1-hydroxyethyl)-2-pyridyl]-5-methyl-pyrazole-3-carbonitrile] | 0.0096 | 0.014 | 0.042
Cc1ccc(Nc2cc3ncn(-c4ccc([C@H](C)O)c(-n5nc(C#N)cc5C)n4)c3cc2OC(F)F)nn1 [Example 402, 1-[6-[6-(difluoromethoxy)-5-[(6-methylpyridazin-3-yl)amino]benzimidazol-1-yl]-3-[(1S)-1-hydroxyethyl]-2-pyridyl]-5-methyl-pyrazole-3-carbonitrile] | 0.0002 | 0.005 | 0.0003
Cc1ccc(Nc2ccc3ncn(-c4ccc(C(C)O)c(N5CC[C@H]6NCC[C@@H]65)n4)c3c2)nn1 (stereo partly drawn) [Example 126, 1-[6-[6-[(6-Methylpyridazin-3-yl)amino]benzimidazol-1-yl]-2-[(3aS,6aR)-2,3,3a,5,6,6a-hexahydro-1H-pyrrolo[3,2-b]pyrrol-4-yl]-3-pyridyl]ethanol; formic acid] | 0.0745 | 0.065 | 0.228
Cc1ccc(Nc2ccc3c(c2)ncn3-c2ccc(C(C)O)c(-c3cc(OC(F)F)nnc3C)n2)nn1 (stereo not drawn) [Example 396, 1-[2-[6-(difluoromethoxy)-3-methyl-pyridazin-4-yl]-6-[5-[(6-methylpyridazin-3-yl)amino]benzimidazol-1-yl]-3-pyridyl]ethanol] | 0.0135 | 1.12 | 0.0056
